Results on eleven compounds are retold here after ChEMBL document CHEMBL1144329, “De novo design, synthesis, and in vitro activity of LFA-1 antagonists based on a bicyclic[5.5]hydantoin scaffold” (Bioorg Med Chem Lett, 2005).

Molecules are shown by their SMILES.

In this assay the target is Intercellular adhesion molecule (ICAM-1), Integrin alpha-L/beta-2 (Homo sapiens, UniProt P05107+P20701). In words: Inhibitory concentration against leukocyte function-associated antigen-1 in HSB-2 human lymphoblast and H1HeLa cell adhesion assay. The class given is functional, cell-based, H1-HeLa.
Chain of Intercellular adhesion molecule (ICAM-1), Integrin alpha-L/beta-2 (P20701 whole entry): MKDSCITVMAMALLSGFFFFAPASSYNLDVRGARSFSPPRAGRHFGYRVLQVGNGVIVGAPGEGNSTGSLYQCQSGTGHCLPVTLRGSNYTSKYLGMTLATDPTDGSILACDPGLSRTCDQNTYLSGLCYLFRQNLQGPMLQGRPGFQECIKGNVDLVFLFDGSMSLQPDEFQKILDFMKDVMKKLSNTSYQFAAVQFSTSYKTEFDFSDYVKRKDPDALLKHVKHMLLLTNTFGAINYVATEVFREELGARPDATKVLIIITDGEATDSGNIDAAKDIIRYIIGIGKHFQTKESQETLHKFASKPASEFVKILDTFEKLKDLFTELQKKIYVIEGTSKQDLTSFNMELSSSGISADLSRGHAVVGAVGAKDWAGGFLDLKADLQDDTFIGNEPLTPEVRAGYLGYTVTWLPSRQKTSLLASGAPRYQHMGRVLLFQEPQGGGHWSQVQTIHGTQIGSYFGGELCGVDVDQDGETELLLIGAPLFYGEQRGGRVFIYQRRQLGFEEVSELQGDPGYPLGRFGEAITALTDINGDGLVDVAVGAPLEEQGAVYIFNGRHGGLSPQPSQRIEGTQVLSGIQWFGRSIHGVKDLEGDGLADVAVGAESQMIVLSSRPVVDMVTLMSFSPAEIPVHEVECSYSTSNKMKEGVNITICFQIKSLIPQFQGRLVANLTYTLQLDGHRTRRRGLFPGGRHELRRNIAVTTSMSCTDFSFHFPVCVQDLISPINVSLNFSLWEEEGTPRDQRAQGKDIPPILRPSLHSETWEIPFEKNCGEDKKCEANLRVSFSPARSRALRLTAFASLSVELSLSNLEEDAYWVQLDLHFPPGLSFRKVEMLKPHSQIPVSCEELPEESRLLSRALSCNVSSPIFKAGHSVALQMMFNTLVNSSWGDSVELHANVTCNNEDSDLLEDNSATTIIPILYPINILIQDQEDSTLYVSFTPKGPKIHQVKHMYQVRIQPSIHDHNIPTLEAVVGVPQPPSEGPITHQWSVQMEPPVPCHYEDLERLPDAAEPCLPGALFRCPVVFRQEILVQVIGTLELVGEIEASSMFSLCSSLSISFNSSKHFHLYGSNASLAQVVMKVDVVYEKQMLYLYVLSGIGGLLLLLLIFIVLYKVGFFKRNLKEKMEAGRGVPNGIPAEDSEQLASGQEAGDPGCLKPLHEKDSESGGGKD
Chain of Intercellular adhesion molecule (ICAM-1), Integrin alpha-L/beta-2 (P05362 whole entry, further chain): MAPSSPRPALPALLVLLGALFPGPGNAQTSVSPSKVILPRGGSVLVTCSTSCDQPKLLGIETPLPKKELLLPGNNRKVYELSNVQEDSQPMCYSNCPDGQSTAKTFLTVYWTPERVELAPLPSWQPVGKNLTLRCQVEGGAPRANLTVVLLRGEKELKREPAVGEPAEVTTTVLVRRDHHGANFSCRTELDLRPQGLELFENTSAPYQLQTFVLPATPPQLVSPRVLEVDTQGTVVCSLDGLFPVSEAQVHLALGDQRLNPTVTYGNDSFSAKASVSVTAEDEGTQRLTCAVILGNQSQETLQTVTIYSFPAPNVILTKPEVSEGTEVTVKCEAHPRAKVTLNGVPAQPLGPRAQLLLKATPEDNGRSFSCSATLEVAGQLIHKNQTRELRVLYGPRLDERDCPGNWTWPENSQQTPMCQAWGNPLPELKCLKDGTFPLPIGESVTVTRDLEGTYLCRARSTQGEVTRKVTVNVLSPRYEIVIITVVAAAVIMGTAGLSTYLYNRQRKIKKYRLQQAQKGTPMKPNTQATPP
Chain of Intercellular adhesion molecule (ICAM-1), Integrin alpha-L/beta-2 (P05107 whole entry): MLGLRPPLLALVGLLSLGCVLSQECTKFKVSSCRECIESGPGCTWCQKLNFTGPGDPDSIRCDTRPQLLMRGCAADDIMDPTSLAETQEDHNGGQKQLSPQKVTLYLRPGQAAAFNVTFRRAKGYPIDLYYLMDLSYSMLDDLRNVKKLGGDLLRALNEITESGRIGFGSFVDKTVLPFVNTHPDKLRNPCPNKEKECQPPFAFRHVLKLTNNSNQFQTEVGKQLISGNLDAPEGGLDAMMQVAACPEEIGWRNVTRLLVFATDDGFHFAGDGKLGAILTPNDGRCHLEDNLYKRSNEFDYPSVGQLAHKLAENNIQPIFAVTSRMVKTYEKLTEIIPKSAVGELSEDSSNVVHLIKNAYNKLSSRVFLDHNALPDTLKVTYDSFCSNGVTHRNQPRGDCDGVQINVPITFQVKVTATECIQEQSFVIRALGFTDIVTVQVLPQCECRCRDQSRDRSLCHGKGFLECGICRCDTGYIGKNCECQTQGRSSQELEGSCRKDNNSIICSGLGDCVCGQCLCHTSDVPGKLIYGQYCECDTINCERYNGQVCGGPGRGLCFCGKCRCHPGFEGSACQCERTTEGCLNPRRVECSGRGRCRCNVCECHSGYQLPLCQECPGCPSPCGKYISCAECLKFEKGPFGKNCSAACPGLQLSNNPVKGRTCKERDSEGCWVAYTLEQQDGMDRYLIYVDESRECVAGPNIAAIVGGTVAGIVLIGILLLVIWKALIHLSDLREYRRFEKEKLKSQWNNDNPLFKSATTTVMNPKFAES
By IC50 is commonly meant the concentration that inhibits the measured activity by half. High values mean lower potency, low ones higher potency. For the compound `O=C1[C@H]2C[C@@H](OCc3cccc(-c4ccc(Cl)cc4)c3)CN2C(=O)N1c1cc(Cl)cc(Cl)c1`, the IC50 is 620 nM. Regarding `O=C1[C@@H]2C[C@H](SCc3cccc(-c4ccc(Br)cc4)c3)CN2C(=O)N1c1cc(Cl)cc(Cl)c1`, half-maximal inhibition (IC50) was put at 290 nM. The result for `CCN(Cc1cccc(-c2ccc(C#N)cc2)c1)[C@H]1C[C@H]2C(=O)N(c3cc(Cl)cc(Cl)c3)C(=O)N2C1` reads 730 nM; that for `O=C1[C@@H]2C[C@H](OCc3cccc(-c4ccc(Br)cc4)c3)CN2C(=O)N1c1cc(Cl)cc(Cl)c1`, 85 nM; that for `O=C1[C@@H]2C[C@H](OCc3cccc(-c4cccc(Br)c4)c3)CN2C(=O)N1c1cc(Cl)cc(Cl)c1`, 755 nM.

As to `N#Cc1ccc(-c2cccc(CO[C@H]3C[C@H]4C(=O)N(c5cc(Cl)cc(Cl)c5)C(=O)N4C3)c2)cc1`, the IC50 came to 270 nM. The result for `O=C1[C@@H]2C[C@@H](OCc3cccc(-c4ccc(Br)cc4)c3)CN2C(=O)N1c1cc(Cl)cc(Cl)c1` reads 935 nM; that for `O=C1[C@@H]2C[C@H](Oc3ccc(-c4ccc(Br)cc4)cc3)CN2C(=O)N1c1cc(Cl)cc(Cl)c1`, 480 nM; that for `CN(Cc1cccc(-c2ccc(Br)cc2)c1)[C@H]1C[C@H]2C(=O)N(c3cc(Cl)cc(Cl)c3)C(=O)N2C1`, 175 nM. In the case of `O=C1[C@H]2C[C@@H](OCc3cccc(-c4ccc(Br)cc4)c3)CN2C(=O)N1c1cc(Cl)cc(Cl)c1`, the IC50 came out at 275 nM.

Compound `N#Cc1ccc(-c2cccc(CN[C@H]3C[C@H]4C(=O)N(c5cc(Cl)cc(Cl)c5)C(=O)N4C3)c2)cc1` came in with an IC50 of 175 nM.
